Here are results for two molecules from PMC5958064, “Single cell analysis of kynurenine and System L amino acid transport in T cells” (Nature Communications, 2018).

Data set [1] deals with T1, System L transporter (Mus musculus, UniProt Q9Z127).
T1 construct: Radiolabelled tracer uptake in IL-2 maintained TH1 cells (top panels) and IL-2 maintained CTLs (bottom panels); endogenous in cells; host or cells: IL-2 maintained mouse TH1 cells and CTLs
Nature of the data set: Radiolabelled 3H-tryptophan uptake in TH1 cells and CTLs. The data set is classed as cell-based. The conditions noted are these: BCH 5 mM. The protocol:
(§1) Briefly, radiolabelled uptake was carried out using 1 × 10^6 cells resuspended in 0.4 ml uptake medium. Kynurenine uptake was carried out in warmed (37 °C) HBSS (GIBCO) containing [^3H] L-kynurenine (0.1 μCi/ml). 4 min uptake assays were carried out layered over 0.5 ml of 1:1 silicone oil (Dow Corning 550 (BDH silicone products; specific density, 1.07 g/ml):dibutyl phthalate (Fluka)). Cells were pelleted below the oil, the aqueous supernatant solution, followed by the silicon oil/dibutyl phthalate mixture was aspirated, and the cell pellet underneath resuspended in 200 μl NaOH (0.5 M) and β-radioactivity measured by liquid scintillation counting in a Beckman LS 6500 Multi-Purpose Scintillation Counter (Beckman Coulter). Similarly, glutamine uptake was performed using [^3H] L-glutamine (0.5 μCi/ml); tryptophan uptake was performed using [^3H] L-tryptophan (0.5 μCi/ml). Where indicated, 5 mM BCH, Kynurenine, L-glutamine or L-tryptophan were used, respectively, to quench radiolabeled ligand uptake. Where indicated, the sodium free buffer was prepared using TMACl as described in Baird et al.[35] Data are expressed as molecules radiotracer per cell per minute. [^3H] L-kynurenine, [^3H] L-tryptophan and [^3H] L-glutamine were obtained from Perkin Elmer. All other chemicals were obtained from Sigma.

The subject of data set [2] is activated T cells. The data set can be described thus: Radiolabelled 3H-glutamine uptake in activated T cells. The format is cell-based, mouse. The conditions noted are these: IL-2 maintained TH1 cells and CTLs, BCH 5 mM. As to the method: as §1
The subject of data set [3] is D3 TH17cond CD4+ T cells. Nature of the data set: FICZ uptake by flow cytometry (530 nm emission). The data set is classed as cell-based, mouse. Particulars: FICZ 300 nM, 4 min, BCH 10 mM. A general note: In flow cytometry, cells or beads pass a laser one at a time.
From the text: Error bars are ±s.d. Individual points indicate biological replicates. MFIs are indicated in the histograms, data are from three biological replicates (a–g, i–j) and six (Kyn) or three biological replicates (FICZ) (h).
As a control, we used the AHR ligand 6-formylindolo[3,2-b]carbazole (FICZ), a tryptophan-derived photoproduct. The intrinsic fluorescence of FICZ has previously been used to monitor cellular accumulation of FICZ by flow cytometry using BP filter for 530/30 nm emission with 488 nm laser excitation[27]. […] Further evidence for the importance of System L transport for kynurenine action came from experiments using BCH treatment to inhibit System L transport.
In data set [4] the target is T2, System L transporter SLC7A5 (Mus musculus, UniProt Q9Z127).
T2 construct: endogenous in cells
Nature of the data set: Flow cytometry kynurenine uptake assay (450 nm fluorescence) in T cells. Particulars: D3 TH17cond CD4+ T cells, kynurenine 100 μM, 4 min, BCH 10 mM. The format is cell-based.

Data set [5] has as its system Cyp1a1 (mRNA, through AHR). Nature of the data set: Cyp1a1 mRNA induction in TH17cond CD4+ T cells (qPCR). The data set is classed as cell-based, mouse. Particulars: mouse, day 3 TH17-conditioned primary CD4+ T cells, D3 TH17cond CD4+ T cells, 2 h; read-out: EC50 to drive Cyp1A1 mRNA expression. The protocol:
To activate primary T cells, spleens and/or lymph nodes (LN) were removed, disaggregated and red blood cells lysed. Cells were stimulated with 1 μg/ml of the CD3 monoclonal antibody (2C11) and 2 μg/ml anti-CD28 (37.51; ebiosciences) to trigger the TCR. Naive CD4^+ T cells and 24 h TCR-activated CD4^+ T cells were purified using CD4 isolation kit (EasySep, STEMCELL Technologies). […] Proleukin, Novartis) for a further 3–5 days. To generate TH1s and TH17s, murine CD8^+ T cells were depleted from lymph node preparations using CD8 depletion kit (EasySep, STEMCELL Technologies). […] RnD Systems) and IL-2 (20 ng/ml) and for TH17s; cytokines IL-6 (50 ng/ml, Peprotech), IL-1β (10 ng/ml, Peprotech) and TGFβ (2 ng/ml, Peprotech). TH17s were cultured in IMDM (Gibco). All other cells were cultured in RPMI 1640 containing L-glutamine (Gibco). Culture media was supplemented with 10% FBS (Gibco), 50 μM β-mercaptoethanol (β-ME, Sigma) and penicillin/streptomycin (Gibco). Cells were incubated at 37 °C with 5% CO2 throughout. […] RNA was purified using the RNeasy RNA purification Mini Kit (Qiagen) (Genomic DNA was digested with RNase-free DNase (Qiagen) following manufacturer instructions) and reverse-transcribed using the iScript cDNA synthesis kit (BioRad). Quantitative PCR was performed in 96-well plate format using iQ SYBR Green-based detection (BioRad) on a BioRad iCycler.
For orientation: Real-time PCR tracks product formation cycle by cycle.

Data set [6] concerns mTORC1. The data set can be described thus: mTORC1 activity in CTLs after leucine removal and refeeding. The format is cell-based, mouse. Particulars: CTLs removed from leucine, refed leucine 100uM ± Kyn 100uM. The text has this:
page 13: • We […] would not be able to measure the levels of in vivo ky nurenine uptake with this assay (for the reasons explained above). However, this is a pertinent question, and will relate to the total amount of available kynurenine compared to alternative System L substrates. The detailed micro-environmental metabolomics techniques required to perform this kind of analysis is beyond the scope of this paper, however we have tried to address this point in the discussion. Second, did CD4 T cells (Foxp3-) and Tregs (Foxp3+) from Lm-infected mice also i mport Ky n? […] This, also, is a very interesting aspect, however we feel that it is beyond the scope of this paper. Point 4: Data presented in Figures 4 & 5 show convincingly that SLC7A5 ablation in CD4 T cells abolishes Kyn uptake in CD4 T cells selectively and that imported Kyn triggers AhR signaling in CD4 T cells, respectively. However, no data is presented to address the biological significance of these findings, specifically regarding the reported ability of Kyn to suppress Th1 responses (e.g. IFNg production) or to reinforce Treg-mediated suppression of effector T cells via AhR signaling. […]

Data set [7] deals with Cyp1A1 expression in U87 glioma cells. More on the design: method as in PMID 21976023. The conditions noted are these: read-out: EC50 to drive Cyp1A1 expression; cited from earlier work.
Data set [8] has as its system AHR. Details: method as in PMID 25657351, PMID 29279331. The conditions noted are these: cited from earlier work.

T1 sequence (Q9Z127 whole entry): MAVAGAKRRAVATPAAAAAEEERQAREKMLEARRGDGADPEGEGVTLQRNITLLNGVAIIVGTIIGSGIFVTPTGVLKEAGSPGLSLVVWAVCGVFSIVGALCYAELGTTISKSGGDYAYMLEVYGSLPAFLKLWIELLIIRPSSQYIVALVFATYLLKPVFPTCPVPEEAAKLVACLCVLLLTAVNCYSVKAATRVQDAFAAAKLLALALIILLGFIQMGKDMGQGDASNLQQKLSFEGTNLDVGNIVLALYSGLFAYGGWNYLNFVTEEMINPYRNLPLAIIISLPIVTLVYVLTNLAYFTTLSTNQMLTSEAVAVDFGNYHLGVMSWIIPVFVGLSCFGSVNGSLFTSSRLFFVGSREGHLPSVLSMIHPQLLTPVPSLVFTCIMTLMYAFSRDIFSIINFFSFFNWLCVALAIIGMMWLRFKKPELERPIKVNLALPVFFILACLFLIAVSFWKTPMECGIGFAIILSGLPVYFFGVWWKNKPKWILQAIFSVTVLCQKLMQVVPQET
T1 sequence (P10852 whole entry partner): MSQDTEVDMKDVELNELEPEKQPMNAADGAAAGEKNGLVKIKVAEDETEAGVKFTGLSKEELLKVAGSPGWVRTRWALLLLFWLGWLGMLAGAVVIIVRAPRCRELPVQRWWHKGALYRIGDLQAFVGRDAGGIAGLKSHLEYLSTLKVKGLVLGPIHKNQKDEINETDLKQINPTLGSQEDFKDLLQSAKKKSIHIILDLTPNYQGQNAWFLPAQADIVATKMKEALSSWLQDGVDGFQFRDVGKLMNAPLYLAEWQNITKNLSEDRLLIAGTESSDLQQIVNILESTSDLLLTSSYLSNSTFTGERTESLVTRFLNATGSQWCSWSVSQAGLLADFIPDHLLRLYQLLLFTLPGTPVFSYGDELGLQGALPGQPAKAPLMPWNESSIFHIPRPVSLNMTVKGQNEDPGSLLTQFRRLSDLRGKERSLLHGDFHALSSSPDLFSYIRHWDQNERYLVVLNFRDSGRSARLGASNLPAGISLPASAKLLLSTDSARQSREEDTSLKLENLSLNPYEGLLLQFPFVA
T2 sequence (Q9Z127 whole entry): as the sequence (Q9Z127 whole entry) above
T2 sequence (P10852 whole entry partner): as the sequence (P10852 whole entry partner) above

On to `NC1(C(=O)O)CC2CCC1C2` (centres unmarked) [BCH, 2-amino-2-norbornanecarboxylic acid], for which, in data set [1], the “effect on 3H-tryptophan transport” value is “inhibited”. The “effect on radiolabelled glutamine uptake” value in data set [2] is “failure to block”. Moreover, in data set [3], the “effect on FICZ uptake” value is listed as “not affected”. Moreover, in data set [4], the “effect on kynurenine uptake” value is “inhibited”.

In the case of `Nc1ccccc1C(=O)CC(N)C(=O)O` (centres unmarked) [kynurenine], the EC50 (in general, the concentration at which the effect is half-maximal) at 2 h in data set [5] is 11 µM. The “effect on mTORC1 activity” value in data set [6] is listed as “impair restoration of mTORC1 activity”. The EC50 in data set [7] was 12.3 µM. Further, the “concentrations needed to activate the AHR” value in data set [8] is recorded as “μM levels”.
